| SMILES | melting point |
| --- | --- |
| CC(C)NCCNc1nc(Nc2cccc(NS(C)(=O)=O)c2)nc2[nH]ccc12 [Example 82, N-{3-[4-(2-Isopropylamino-ethylamino)-7H-pyrrolo[2,3-d]pyrimidin-2-ylamino]-phenyl}-methanesulfonamide] | 127 to 131 °C |
| CC(C)N(CCO)c1nc(Nc2cccc(NS(C)(=O)=O)c2)nc2[nH]ccc12 [Example 87, N-(3-{4-[(2-Hydroxy-ethyl)-isopropyl-amino]-7H-pyrrolo[2,3-d]pyrimidin-2-ylamino}-phenyl)-methanesulfonamide] | 129 to 132 °C |
| CS(=O)(=O)Nc1cccc(Nc2nc(N3CCC[C@H]3CO)c3nc[nH]c3n2)c1 [Example 3, N-{3-[6-((S)-2-Hydroxymethyl-pyrrolidin-1-yl)-9H-purin-2-ylamino]-phenyl}-methanesulfonamide] | 192 to 197 °C |
| CN(C)c1cccc(CNc2nc(Nc3cccc(NS(C)(=O)=O)c3)nc3[nH]cnc23)c1 [Example 31, N-{3-[6-(3-Dimethylamino-benzylamino)-9H-purin-2-ylamino]-phenyl}-methanesulfonamide] | 148 to 151 °C |
| CS(=O)(=O)Nc1cccc(Nc2nc(N3CCC(O)C3)c3nc[nH]c3n2)c1 (stereo not shown) [Example 12, N-{3-[6-(3-Hydroxy-pyrrolidin-1-yl)-9H-purin-2-ylamino]-phenyl}-methanesulfonamide] | 243 to 248 °C |
| CS(=O)(=O)Nc1cccc(Nc2nc(NCCc3ccccn3)c3nc[nH]c3n2)c1 [Example 10, N-{3-[6-(2-Pyridin-2-yl-ethylamino)-9H-purin-2-ylamino]-phenyl}-methanesulfonamide] | 199 to 202 °C |
| CS(=O)(=O)Nc1cccc(Nc2nc(NCc3cccc(C#N)c3)c3nc[nH]c3n2)c1 [Example 78, N-{3-[6-(3-Cyano-benzylamino)-9H-purin-2-ylamino]-phenyl}-methanesulfonamide] | 128 to 131 °C |
| CN(C)CCNc1nc(Nc2cccc(NS(C)(=O)=O)c2)nc2[nH]cnc12 [Example 6, N-(3-{6-[2-Dimethylamino-ethylamino]-9H-purin-2-ylamino]-phenyl}-methanesulfonamide] | 191 to 195 °C |
| C[C@@H](Nc1nc(Nc2cccc(NS(C)(=O)=O)c2)nc2[nH]ccc12)C(C)(C)C [Example 49, N-{3-[4-((R)-1,2,2-Trimethyl-propylamino)-7H-pyrrolo[2,3-d]pyrimidin-2-ylamino]-phenyl}-methanesulfonamide] | 125 to 128 °C |
| C=CS(=O)(=O)Nc1cccc(Nc2nc(N[C@H](C)C(C)(C)C)c3nc[nH]c3n2)c1 [Example 97, Ethenesulfonic acid {3-[6-((R)-1,2,2-trimethyl-propylamino)-9H-purin-2-ylamino]-phenyl}-amide] | 133 to 136 °C |
| CS(=O)(=O)Nc1cccc(Nc2nc(NCC(O)CO)c3nc[nH]c3n2)c1 (stereo not shown) [Example 11, N-{3-[6-(2,3-Dihydroxy-propylamino)-9H-purin-2-ylamino]-phenyl}-methanesulfonamide] | 164 to 168 °C |
| CN(C)c1ccc(CNc2nc(Nc3cccc(NS(C)(=O)=O)c3)nc3[nH]cnc23)cc1 [Example 20, N-{3-[6-(4-Dimethylamino-benzylamino)-9H-purin-2-ylamino]-phenyl}-methanesulfonamide] | 138 to 142 °C |
| CCC(C)(C)[C@@H](C)Nc1nc(Nc2cccc(NS(C)(=O)=O)c2)nc2[nH]cnc12 [Example 65, N-{3-[6-((R)-1,2,2-Trimethyl-butylamino)-9H-purin-2-ylamino]-phenyl}-methanesulfonamide] | 143 to 146 °C |
| CC(C)N(C)c1nc(Nc2cccc(NS(C)(=O)=O)c2)nc2[nH]cnc12 [Example 36, N-{3-[6-(Isopropyl-methyl-amino)-9H-purin-2-ylamino]-phenyl}-methanesulfonamide] | 144 to 147 °C |
| CC(C)Nc1nc(Nc2cccc(NS(C)(=O)=O)c2)nc2[nH]cnc12 [Example 2, N-[3-(6-Isopropylamino-9H-purin-2-ylamino)-phenyl]-methanesulfonamide] | 161 to 165 °C |
| C[C@H](Nc1nc(Nc2cccc(NS(C)(=O)=O)c2)nc2[nH]cnc12)c1ccccc1 [Example 40, N-{3-[6-((S)-1-Phenyl-ethylamino)-9H-purin-2-ylamino]-phenyl}-methanesulfonamide] | 141 to 144 °C |

Further lines, results first:

| melting point | SMILES |
| --- | --- |
| 144 to 147 °C | CS(=O)(=O)Nc1cccc(Nc2nc(NCc3cccnc3)c3nc[nH]c3n2)c1 [Example 15, N-(3-{6-[(Pyridin-3-ylmethyl)-amino]-9H-purin-2-ylamino}-phenyl)-methanesulfonamide] |
| 163 to 166 °C | CS(=O)(=O)Nc1cccc(Nc2nc(NCCO)c3nc[nH]c3n2)c1 [Example 17, N-{3-[6-(2-Hydroxy-ethylamino)-9H-purin-2-ylamino]-phenyl}-methanesulfonamide] |
| 128 to 132 °C | C[C@H](Nc1nc(Nc2cccc(NS(C)(=O)=O)c2)nc2[nH]ccc12)C(C)(C)C [Example 51, N-{3-[4-((S)-1,2,2-Trimethyl-propylamino)-7H-pyrrolo[2,3-d]pyrimidin-2-ylamino]-phenyl}-methanesulfonamide] |
| 255 to 257 °C | CS(=O)(=O)Nc1cccc(Nc2nc(OC3CCOC3)c3nc[nH]c3n2)c1 (stereo not shown) [Example 25, N-{3-[6-(Tetrahydro-furan-3-yloxy)-9H-purin-2-ylamino]-phenyl}-methanesulfonamide] |
| 147 to 150 °C | CS(=O)(=O)Nc1cccc(Nc2nc(NCC3CCCCN3)c3nc[nH]c3n2)c1 (stereo not shown) [Example 21, N-(3-{6-[(Piperidin-2-ylmethyl)-amino]-9H-purin-2-ylamino}-phenyl)-methanesulfonamide] |
| 138 to 141 °C | CC[C@H](Nc1nc(Nc2cccc(NS(C)(=O)=O)c2)nc2[nH]cnc12)c1ccccc1 [Example 92, N-{3-[6-((S)-1-Phenyl-propylamino)-9H-purin-2-ylamino]-phenyl}-methanesulfonamide] |
| 170 to 173 °C | CS(=O)(=O)Nc1cccc(Nc2nc(NCc3cccc(N)c3)c3nc[nH]c3n2)c1 [Example 72, N-{3-[6-(3-Amino-benzylamino)-9H-purin-2-ylamino]-phenyl}-methanesulfonamide] |
| 169 to 172 °C | CS(=O)(=O)Nc1cccc(Nc2nc(OCC3CCCCC3)c3nc[nH]c3n2)c1 [Example 24, N-[3-(6-Cyclohexylmethoxy-9H-purin-2-ylamino)-phenyl]-methanesulfonamide] |
| 203 to 205 °C | CS(=O)(=O)Nc1cccc(Nc2nc(OC3CCCC3)c3cc[nH]c3n2)c1 [Example 43, N-[3-(4-Cyclopentyloxy-7H-pyrrolo[2,3-d]pyrimidin-2-ylamino)-phenyl]-methanesulfonamide] |
| 168 to 171 °C | CS(=O)(=O)Nc1cccc(Nc2nc(NCc3ccccc3O)c3nc[nH]c3n2)c1 [Example 94, N-{3-[6-(2-Hydroxy-benzylamino)-9H-purin-2-ylamino]-phenyl}-methanesulfonamide] |
| 298 to 301 °C | Cc1cn(-c2nc(Nc3cccc(NS(C)(=O)=O)c3)nc3[nH]cnc23)cn1 [Example 13, N-{3-[6-(4-Methyl-imidazol-1-yl)-9H-purin-2-ylamino]-phenyl}-methanesulfonamide] |
| 243 to 246 °C | O=S(=O)(Nc1cccc(Nc2nc(NC3CCCC3)c3nc[nH]c3n2)c1)C(F)(F)F [Example 27, N-[3-(6-Cyclopentylamino-9H-purin-2-ylamino)-phenyl]-C,C,C-trifluoro-methanesulfonamide] |
| 200 to 204 °C | CS(=O)(=O)Nc1cccc(Nc2nc(NC3CN4CCC3CC4)c3nc[nH]c3n2)c1 (stereo not shown) |
| 136 to 139 °C | C[C@@H](Nc1nc(Nc2cccc(NS(C)(=O)=O)c2)nc2[nH]cnc12)c1ccccc1 [Example 41, N-{3-[6-((R)-1-Phenyl-ethylamino)-9H-purin-2-ylamino]-phenyl}-methanesulfonamide] |
| 159 to 162 °C | CC(=O)Nc1cccc(CNc2nc(Nc3cccc(NS(C)(=O)=O)c3)nc3[nH]cnc23)c1 [Example 64, N-(3-{[2-(3-Methanesulfonylamino-phenylamino)-9H-purin-6-ylamino]-methyl}-phenyl)-acetamide] |
| 226 to 230 °C | CC(C)N(CCNc1nc(Nc2cccc(NS(C)(=O)=O)c2)nc2[nH]cnc12)C(C)C [Example 5, N-(3-{6-[2-Diisopropylamino-ethylamino]-9H-purin-2-ylamino]-phenyl}-methanesulfonamide] |
| 227 to 230 °C | CS(=O)(=O)Nc1cccc(Nc2nc(N3CCN(c4ccncc4)CC3)c3nc[nH]c3n2)c1 [Example 7, N-{3-[6-(4-Pyridin-4-yl-piperazin-1-yl)-9H-purin-2-ylamino]-phenyl}-methanesulfonamide] |
| 205 to 210 °C | CS(=O)(=O)Nc1cccc(Nc2nc(NCCc3c[nH]cn3)c3nc[nH]c3n2)c1 [Example 4, N-(3-{6-[2-(1H-Imidazol-4-yl)-ethylamino]-9H-purin-2-ylamino]-phenyl}-methanesulfonamide] |
| 234 to 239 °C | CS(=O)(=O)Nc1cccc(Nc2nc(NC3CCCC3)c3nc[nH]c3n2)c1 [Example 37, N-[3-(6-Cyclopentylamino-9H-purin-2-ylamino)-phenyl]-methanesulfonamide] |
| 137 to 140 °C | CS(=O)(=O)Nc1cccc(Nc2nc(OC3CCCC3)c3nc[nH]c3n2)c1 [Example 23, N-[3-(6-Cyclopentyloxy-9H-purin-2-ylamino)-phenyl]-methanesulfonamide] |
| 216 to 220 °C | CS(=O)(=O)Nc1cccc(Nc2nc(NCc3ncc[nH]3)c3nc[nH]c3n2)c1 [Example 45, N-(3-{6-[(1H-Imidazol-2-ylmethyl)-amino]-9H-purin-2-ylamino}-phenyl)-methanesulfonamide] |

— US20080261973A1, “Sulphonamidoaniline Derivatives Being Janus Kinase Inhibitors” (Novartis AG, priority 2005, published 2008)
